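Where inhibition never reached the appropriate level, the endpoint shown equals the highest concentration tested. Otherwise, values were interpolated linearly from a five-concentration, 48-hour dose response in 96-well plates. Here, GI50 denotes the concentration required for 50% inhibition of growth. TGI: total growth inhibition.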
What was measured:
Assay in all cases: NCI tumour cell line growth inhibition, 48 h
786-0 renal = tested on: 786-0 renal
A549 NSCLC = tested on: A549 NSCLC
ACHN renal = tested on: ACHN renal
BT-549 breast = tested on: BT-549 breast
CAKI-1 renal = tested on: CAKI-1 renal
CCRF-CEM leukemia = tested on: CCRF-CEM leukemia
COLO 205 colon = tested on: COLO 205 colon
DU-145 prostate = tested on: DU-145 prostate
EKVX NSCLC = tested on: EKVX NSCLC
HCC-2998 colon = tested on: HCC-2998 colon
HCT-116 colon = tested on: HCT-116 colon
HCT-15 colon = tested on: HCT-15 colon
HL-60(TB) leukemia = tested on: HL-60(TB) leukemia
HOP-62 NSCLC = tested on: HOP-62 NSCLC
HOP-92 NSCLC = tested on: HOP-92 NSCLC
HS 578T breast = tested on: HS 578T breast
HT29 colon = tested on: HT29 colon
IGROV1 ovarian = tested on: IGROV1 ovarian
K-562 leukemia = tested on: K-562 leukemia
KM12 colon = tested on: KM12 colon
LOX IMVI melanoma = tested on: LOX IMVI melanoma
M14 melanoma = tested on: M14 melanoma
MALME-3M melanoma = tested on: MALME-3M melanoma
MCF7 breast = tested on: MCF7 breast
MDA-MB-231 breast = tested on: MDA-MB-231 breast
MDA-MB-435 = tested on: MDA-MB-435
MOLT-4 leukemia = tested on: MOLT-4 leukemia
NCI-H226 lung = tested on: NCI-H226 lung
NCI-H23 lung = tested on: NCI-H23 lung
NCI-H460 lung = tested on: NCI-H460 lung
NCI-H522 lung = tested on: NCI-H522 lung
NCI/ADR-RES ovarian = tested on: NCI/ADR-RES ovarian
OVCAR-3 ovarian = tested on: OVCAR-3 ovarian
OVCAR-4 ovarian = tested on: OVCAR-4 ovarian
OVCAR-5 ovarian = tested on: OVCAR-5 ovarian
OVCAR-8 ovarian = tested on: OVCAR-8 ovarian
PC-3 prostate = tested on: PC-3 prostate
RPMI-8226 leukemia = tested on: RPMI-8226 leukemia
SF-268 CNS = tested on: SF-268 CNS
SF-295 CNS = tested on: SF-295 CNS
SF-539 CNS = tested on: SF-539 CNS
SK-MEL-2 melanoma = tested on: SK-MEL-2 melanoma
SK-MEL-28 melanoma = tested on: SK-MEL-28 melanoma
SK-MEL-5 melanoma = tested on: SK-MEL-5 melanoma
SK-OV-3 ovarian = tested on: SK-OV-3 ovarian
SN12C renal = tested on: SN12C renal
SNB-19 CNS = tested on: SNB-19 CNS
SNB-75 CNS = tested on: SNB-75 CNS
SR leukemia = tested on: SR leukemia
SW-620 colon = tested on: SW-620 colon
T-47D breast = tested on: T-47D breast
TK-10 renal = tested on: TK-10 renal
U251 CNS = tested on: U251 CNS
UACC-62 melanoma = tested on: UACC-62 melanoma
UO-31 renal = tested on: UO-31 renal

For `CC(C)(Oc1ccc(Cl)cc1)C(=O)NC1C2CC3CC1CC(NS(C)(=O)=O)(C3)C2` (stereo not given), the GI50 (786-0 renal) was 37.4 µM, the TGI (786-0 renal) was > 100 µM and the GI50 (A549 NSCLC) was > 100 µM. The TGI (A549 NSCLC) was > 100 µM, the GI50 (ACHN renal) was 27.4 µM and the TGI (ACHN renal) was > 100 µM. For the same compound, the GI50 (BT-549 breast) was 29.1 µM, the TGI (BT-549 breast) was 83.2 µM and the GI50 (CAKI-1 renal) was > 100 µM. For the same compound, the TGI (CAKI-1 renal) was > 100 µM, the GI50 (CCRF-CEM leukemia) was 39.1 µM and the TGI (CCRF-CEM leukemia) was > 100 µM. The GI50 (COLO 205 colon) was > 100 µM, the TGI (COLO 205 colon) was > 100 µM and the GI50 (DU-145 prostate) was > 100 µM. The TGI (DU-145 prostate) was > 100 µM, the GI50 (EKVX NSCLC) was > 100 µM and the TGI (EKVX NSCLC) was > 100 µM. For the same compound, the GI50 (HCC-2998 colon) was > 100 µM, the TGI (HCC-2998 colon) was > 100 µM and the GI50 (HCT-116 colon) was 38.5 µM. The TGI (HCT-116 colon) was > 100 µM, the GI50 (HCT-15 colon) was > 100 µM and the TGI (HCT-15 colon) was > 100 µM. For the same compound, the GI50 (HL-60(TB) leukemia) was 22.7 µM, the TGI (HL-60(TB) leukemia) was 58.8 µM and the GI50 (HOP-62 NSCLC) was > 100 µM. The TGI (HOP-62 NSCLC) was > 100 µM, the GI50 (HOP-92 NSCLC) was 19 µM and the TGI (HOP-92 NSCLC) was 69.1 µM. The GI50 (HS 578T breast) was 33.2 µM, the TGI (HS 578T breast) was > 100 µM and the GI50 (HT29 colon) was > 100 µM. The TGI (HT29 colon) was > 100 µM, the GI50 (IGROV1 ovarian) was 54.9 µM and the TGI (IGROV1 ovarian) was > 100 µM. The GI50 (K-562 leukemia) was 34.3 µM, the TGI (K-562 leukemia) was > 100 µM and the GI50 (KM12 colon) was > 100 µM. The TGI (KM12 colon) was > 100 µM, the GI50 (LOX IMVI melanoma) was > 100 µM and the TGI (LOX IMVI melanoma) was > 100 µM. It also gave a GI50 (M14 melanoma) of 26.2 µM, a TGI (M14 melanoma) of 80.1 µM and a GI50 (MALME-3M melanoma) of 55.5 µM. The TGI (MALME-3M melanoma) was > 100 µM, the GI50 (MCF7 breast) was > 100 µM and the TGI (MCF7 breast) was > 100 µM. For the same compound, the GI50 (MDA-MB-231 breast) was 66.8 µM, the TGI (MDA-MB-231 breast) was > 100 µM and the GI50 (MDA-MB-435) was > 100 µM. For the same compound, the TGI (MDA-MB-435) was > 100 µM, the GI50 (MOLT-4 leukemia) was 20.7 µM and the TGI (MOLT-4 leukemia) was 84.6 µM. For the same compound, the GI50 (NCI-H226 lung) was > 100 µM, the TGI (NCI-H226 lung) was > 100 µM and the GI50 (NCI-H23 lung) was > 100 µM. The TGI (NCI-H23 lung) was > 100 µM, the GI50 (NCI-H460 lung) was > 100 µM and the TGI (NCI-H460 lung) was > 100 µM. The GI50 (NCI-H522 lung) was > 100 µM, the TGI (NCI-H522 lung) was > 100 µM and the GI50 (NCI/ADR-RES ovarian) was > 100 µM. The TGI (NCI/ADR-RES ovarian) was > 100 µM, the GI50 (OVCAR-3 ovarian) was > 100 µM and the TGI (OVCAR-3 ovarian) was > 100 µM. For the same compound, the GI50 (OVCAR-4 ovarian) was 23.3 µM, the TGI (OVCAR-4 ovarian) was > 100 µM and the GI50 (OVCAR-5 ovarian) was 68.4 µM. For the same compound, the TGI (OVCAR-5 ovarian) was > 100 µM, the GI50 (OVCAR-8 ovarian) was > 100 µM and the TGI (OVCAR-8 ovarian) was > 100 µM. The GI50 (PC-3 prostate) was 30.7 µM, the TGI (PC-3 prostate) was > 100 µM and the GI50 (RPMI-8226 leukemia) was 20.9 µM. For the same compound, the TGI (RPMI-8226 leukemia) was 68.1 µM, the GI50 (SF-268 CNS) was > 100 µM and the TGI (SF-268 CNS) was > 100 µM. For the same compound, the GI50 (SF-295 CNS) was > 100 µM, the TGI (SF-295 CNS) was > 100 µM and the GI50 (SF-539 CNS) was 37.5 µM. The TGI (SF-539 CNS) was > 100 µM, the GI50 (SK-MEL-2 melanoma) was > 100 µM and the TGI (SK-MEL-2 melanoma) was > 100 µM. The GI50 (SK-MEL-28 melanoma) was 26.8 µM, the TGI (SK-MEL-28 melanoma) was > 100 µM and the GI50 (SK-MEL-5 melanoma) was > 100 µM. The TGI (SK-MEL-5 melanoma) was > 100 µM, the GI50 (SK-OV-3 ovarian) was > 100 µM and the TGI (SK-OV-3 ovarian) was > 100 µM. For the same compound, the GI50 (SN12C renal) was > 100 µM, the TGI (SN12C renal) was > 100 µM and the GI50 (SNB-19 CNS) was > 100 µM. The TGI (SNB-19 CNS) was > 100 µM, the GI50 (SNB-75 CNS) was 42.8 µM and the TGI (SNB-75 CNS) was > 100 µM. For the same compound, the GI50 (SR leukemia) was 18.5 µM, the TGI (SR leukemia) was 58.9 µM and the GI50 (SW-620 colon) was > 100 µM. For the same compound, the TGI (SW-620 colon) was > 100 µM, the GI50 (T-47D breast) was > 100 µM and the TGI (T-47D breast) was > 100 µM. For the same compound, the GI50 (TK-10 renal) was > 100 µM, the TGI (TK-10 renal) was > 100 µM and the GI50 (U251 CNS) was > 100 µM. For the same compound, the TGI (U251 CNS) was > 100 µM, the GI50 (UACC-62 melanoma) was 24.1 µM and the TGI (UACC-62 melanoma) was > 100 µM. The GI50 (UO-31 renal) was > 100 µM and the TGI (UO-31 renal) was > 100 µM.

From PubChem BioAssay (NCI)
